The test system of one data set is AOB, NOB and OHOs. The note with it: FNA 0.22-2.47 mgN/L, pH 6, 24 h exposure.
The subject of the next data set is secondary sludge. Particulars: famine conditions, during FNA treatment (FIG. 4). An excerpt: NH4+ release rate under famine conditions is an indication of the hydrolysis of intracellular compounds release during the decay of dying cells. This hydrolysis is taken place by the activity of other living microorganisms present in the sludge.
The subject of data set [1] is denitrifying biomass. The note with it: methanol sludge, experimental reactor, 48 hours, FNA approx. 0.97 ppm, pH 6; 16 images. The procedure: 2. A batch experiment was performed at pH 6 for initial biomass activity determination. At the beginning of the test, nitrate and methanol were added. Liquid phase samples were taken every 15 minutes for the analysis of nitrate and methanol. The consumption rates of methanol and nitrate were determined. All other batch tests described below were also conducted at pH 6. 3. Fresh sludge of 2 L was removed from the SBR at the end of a cycle, and equally divided into two batch reactors, namely the control and the experimental reactors. • a. The sludge in the control reactor was kept at pH 6 under mixed conditions for 48 hours; • b. The sludge in the experimental reactor was kept at pH 6 under mixed conditions for 48 hours. […] 4. 24 hours after the above conditions were started, sludge samples of 250 mL each were removed from both the control and the experimental reactors, and batch experiments as described in Step 2 were performed. […] Sludge samples were also removed at 48 hours from both reactors to quantify the live/dead cells using the Live/Dead BacLight Bacterial Viability assay. […] The methanol and nitrate consumptions rates at the end of Day 3, Day 4 and Day 7 were measured through measuring the nitrate and methanol concentrations over a period over one hour each time. […]

Data set [2] relates to bacteria in a full-scale sludge. The note with it: FNA treated, 48 hours, 500 mgNO2-N/L, pH 6.0, 29 images. The protocol:
Similar tests were performed on a full-scale sludge. However, no activity tests were carried out. […] The nitrite concentration applied to the experimental reactor was 500 mgNO2-N/L. pH was maintained at 6.0 in both the control and experimental reactors.

Data set [3] concerns secondary sludge (enriched methonal-utilising denitrifiers culture). The protocol: (§1) In general, primary sludge is readily hydrolysable (Mahmood and Elliott, 2006; Foladori et al., 2010). […] A series of batch tests were conducted through the use of an enriched methonal-utilising denitrifiers culture, which was employed as secondary sludge in this study.
For data set [4], the system named is secondary sludge (denitrifying microorganisms). The protocol: as §1
Data set [5] concerns denitrifying biomass. Particulars: for methanol consumption rate / nitrate consumption rate / methanol consumption rate, activity recovery / nitrate consumption rate, activity recovery: experimental reactor. The protocol: Methanol provided the carbon source and nitrate provided the electron acceptor. The following procedure was followed:
1. Sludge removed from the denitrifying SBR (sequencing batch reactor). The biomass was enriched for 5 months in an 8 L reactor with methanol as the carbon source and nitrate as the electron acceptor.
2. A batch experiment was performed at pH 6 for initial biomass activity determination. At the beginning of the test, nitrate and methanol were added. Liquid phase samples were taken every 15 minutes for the analysis of nitrate and methanol. The consumption rates of methanol and nitrate were determined. All other batch tests described below were also conducted at pH 6. 3. Fresh sludge of 2 L was removed from the SBR at the end of a cycle, and equally divided into two batch reactors, namely the control and the experimental reactors. • a. The sludge in the control reactor was kept at pH 6 under mixed conditions for 48 hours; • b. The sludge in the experimental reactor was kept at pH 6 under mixed conditions for 48 hours. […] 4. 24 hours after the above conditions were started, sludge samples of 250 mL each were removed from both the control and the experimental reactors, and batch experiments as described in Step 2 were performed. Before the addition of nitrate and methanol, the sludges were washed with effluent from the parent SBR to ensure that both sludge samples were nitrite-free. 5. The above tests were repeated at 48 hours. 6. Sludge samples were also removed at 48 hours from both reactors to quantify the live/dead cells using the Live/Dead BacLight Bacterial Viability assay. 7. At 48 hours, the experimental reactor was washed with the effluent from the parent SBR to remove the residual nitrite. Nitrate and methanol were then added to the reactor resulting in concentrations of […] and 150 mg/L, respectively. The methanol and nitrate consumptions rates at the end of Day 3, Day 4 and Day 7 were measured through measuring the nitrate and methanol concentrations over a period over one hour each time. […] Experiments with Full-Scale Sludge

How the values of data set [6] were obtained:
In this experiment, a lab-scale sequencing batch reactor (SBR) with a working volume of 8 L was used in this study. The SBR was operated with a cycle time of 6-h, consisting of 10 min anoxic feed, 70 min anoxic reaction, 225 min aerobic reaction, 5 min sludge wasting, 45 min settling and 5 min decanting periods. In each cycle, 2 L of synthetic wastewater containing 400 mg COD and 50 mgN/L TKN including 40 mgNH4+-N/L, made from milk powder and ammonium chloride, along with other trace elements, was pumped into the SBR in the 10 min feed period, resulting in a hydraulic retention time (HRT) of 24 h. Before settling, around 133 ml of mixed liquor was wasted, giving rise to a sludge retention time of 15 days. The SBR was operated at a temperature of 18±2° C., with DO being controlled between 1.5-2.0 mg/L by a programmable logic controller (PLC) in the aerobic period.
50% of the wasted mixed liquor was treated by 2.0 mg HNO2-N/L for approximately 24 h, 30 h, 36 h and 42 h, respectively.
The sludge wasted from the SBR was allowed to settle. […] The other 50% of the sludge was sent to disposal.
A control SBR operating under identical conditions was also fed with the same wastewater, but there was no recycle of any sludge to this reactor.

[7] abbreviates: Day 1 of exposure, 500 mg NO2-N/L, pH 6, FNA approx. 0.97 ppm.
Where [8] appears, read: Day 2 (48 h exposure; time when recovery started), FNA approx. 0.97 ppm, pH 6.
Where [9] appears, read: Day 3, after 48 h FNA exposure and nitrite wash-out.
[10] abbreviates: Day 4, after 48 h FNA exposure and nitrite wash-out.
Setting [11] is: Day 7, after 48 h FNA exposure and nitrite wash-out.

Structures are written as SMILES. Where “and” joins values, the source holds several entries; their conditions need not be identical. Equal entries are not always repeated. Where two headings read alike, the source gives them in different places.

Description for AOB, NOB and OHOs: Sludge was taken out from the parent reactor (SBR) at the end of an aerobic period and then transferred into a batch reactor. Afterwards, ammonium and nitrite stock solutions were added to the batch reactor, resulting in the ammonium and nitrite concentrations of 25 mg NH4-N/L and 20 mg NO2-N/L, respectively. Air was supplied during the whole experiment period (DO was not limiting, i.e. >3 mg/L). pH was controlled in the range of 7.5-8 during the whole experimental period. The activities of AOB and NOB were determined as biomass-specific nitrite+nitrate and nitrate production rates, respectively.
Sludge was taken out from the parent reactor at the end of an aerobic period and then transferred into a batch reactor. Afterwards, sodium acetate and ammonium stock solutions were added to the batch reactor, resulting in the COD and ammonium concentrations of 150 mg COD/L and 20 NH4-N/L, respectively. Air was supplied during the whole experiment period (DO was not limiting, i.e. >3 mg/L). pH was controlled in the range of 7.5-8 during the whole experimental period. The aerobic activity of OHO was determined as biomass-specific COD consumption rates.
The experimental conditions applied in batch testing are set out in Table 6.

As for `O=NO` [FNA, free nitrous acid], the “reduction of NOB and OHO compared to AOB” value in the data set with AOB, NOB and OHOs was “significantly greater reduction in NOB”. Further, the “NH4+ release rate, dependency on FNA concentration” value in the data set on secondary sludge is “decrease”. The “Average (% dead cells)” value in the data set on denitrifying biomass [1] turned out to be 40.4%; in data set [2], 63.6%. Further, the “live cell fraction, effect of exposure time” value in data set [3] (48 h of exposure vs shorter, biggest difference at highest FNA concentrations) is recorded as “Smaller live cell fraction”. In data set [3] (exposure 8 h, 24 h, 48 h (FIG. 3)), the “fraction of viable cells, dependency on FNA concentration” value is recorded as “decreased with increasing FNA concentration”. Besides, the “biomass (denitrification) activity recovery” value in data set [4] (longest exposure time to FNA, even at lowest FNA concentration) is given as “almost negligible”; in data set [4] (lower exposure time, 8 h to FNA), “displays a recovery”. In the data set with denitrifying biomass [5] (FNA approximately 1 ppm for 48 hours), the “loss of biomass activity” value was determined as 99%. Further, the methanol consumption rate with denitrifying biomass [5] (setting [7]) is 0.051 mg Methanol/gVSS*min; in the data set on denitrifying biomass [5] (setting [8]), 0.0 mg Methanol/gVSS*min and 0 mg Methanol/gVSS*min. Further, the values for the nitrate consumption rate in the data set with denitrifying biomass [5] (setting [7]) and with denitrifying biomass [5] (setting [8]) were 0.014 mg N—NO3^−/gVSS*min and 0.004 mg N—NO3^−/gVSS*min, respectively. Moreover, the “methanol consumption rate, activity recovery” value came to 0.133 mg Methanol/gVSS*min in the data set on denitrifying biomass [5] (setting [9]), 0.067 mg Methanol/gVSS*min in the data set on denitrifying biomass [5] (setting [10]) and 0.235 mg Methanol/gVSS*min in the data set with denitrifying biomass [5] (setting [11]). In addition, the “nitrate consumption rate, activity recovery” value is given as 0.004 mg N—NO3^−/gVSS*min in the data set with denitrifying biomass [5] (setting [9]), 0.022 mg N—NO3^−/gVSS*min in the data set with denitrifying biomass [5] (setting [10]) and 0.089 mg N—NO3^−/gVSS*min in the data set with denitrifying biomass [5] (setting [11]). Further, the “MLSS Predicted if FNA did not improve sludge degradability” value in data set [6] (FNA reactor, steady state) is reported as 2369 mg/L. Besides, the “MLVSS Predicted if FNA did not improve sludge degradability” value in data set [6] (FNA reactor, steady state) is 2274 mg/L. Besides, the “FNA treated sludge degraded in the reactor” value in data set [6] (mass balance analysis of MLSS and MLVSS) is recorded as “approximately 75%”.

These data come from patent US9242883B2, “Pre-treatment of sludge” (THE UNIVERSITY OF QUEENSLAND, priority 2011, dated 2016).
